For eleven compounds, IC50 results are on record in patent publication US9085555B2, “Complement pathway modulators and uses thereof” (priority 2011, dated 2015).

The target in the assay is Factor D (Homo sapiens (Human), UniProt P00746). Description: biochemical. The class given is biochemical. Conditions: read-out: IC50.
Sequence of Factor D (P00746 26-253): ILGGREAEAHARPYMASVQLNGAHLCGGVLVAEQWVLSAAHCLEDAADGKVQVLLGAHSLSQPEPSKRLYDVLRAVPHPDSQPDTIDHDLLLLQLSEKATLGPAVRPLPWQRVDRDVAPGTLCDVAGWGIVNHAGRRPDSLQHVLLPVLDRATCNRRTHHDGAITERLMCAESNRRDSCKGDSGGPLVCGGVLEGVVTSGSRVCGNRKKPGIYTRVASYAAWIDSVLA
The IC50 is the concentration that inhibits the measured activity by half. Consider `COC(=O)[C@H]1C[C@@H](C(=O)Nc2cccc(OC(F)(F)F)c2F)N(C(=O)Nc2cn(C(N)=O)c3ccccc23)C1` [Example 435, (3S,5S)-1-(1-Carbamoyl-1H-indol-3-ylcarbamoyl)-5-(2-fluoro-3-trifluoromethoxy-phenylcarbamoyl)-pyrrolidine-3-carboxylic acid methyl ester], for which the IC50 was determined as 0.25 µM.

Turning to `NC(=O)n1cc(NC(=O)N2C[C@H](F)C[C@H]2C(=O)Nc2cccc(Br)n2)c2ccccc21` [Example 764, (2S,4R)-4-Fluoro-pyrrolidine-1,2-dicarboxylic acid 2-[(6-bromo-pyridin-2-yl)-amide]1-[(1-carbamoyl-1H-indol-3-yl)-amide]], the concentration for half-maximal inhibition (IC50) stood at 0.004 µM.

With `CNC(=O)n1cc(NC(=O)N2[C@@H]3C[C@@H]3C[C@H]2C(=O)N[C@H](CO)c2cccc(Cl)c2F)c2ccccc21` [Example 287, (1R,3S,5R)-2-Azabicyclo[3.1.0]hexane-2,3-dicarboxylic acid 3-{[(S)-1-(3-chloro-2-fluoro-phenyl)-2-hydroxy-ethyl]-amide}2-[(1-methylcarbamoyl-1H-indol-3-yl)-amide]], the IC50 worked out at 0.112 µM.

`CC(=O)c1cn(CC(=O)N2C[C@](C)(F)C[C@H]2C(=O)NCc2cccc(Cl)c2F)c2ccc(O)cc12` [Example 580, (2S,4R)-1-[2-(3-Acetyl-5-hydroxy-indol-1-yl)-acetyl]-4-fluoro-4-methyl-pyrrolidine-2-carboxylic acid 3-chloro-2-fluoro-benzylamide]: the 50% inhibitory concentration (IC50) came to 0.252 µM.

Take `NC(=O)n1cc(NC(=O)N2C[C@H](F)C[C@H]2C(=O)NCc2ccc(Cl)s2)c2ccccc21` [Example 11, (2S,4R)-4-Fluoro-pyrrolidine-1,2-dicarboxylic acid 1-[(1-carbamoyl-1H-indol-3-yl)-amide] 2-[(5-chloro-thiophen-2-ylmethyl)-amide]]: the half-inhibitory concentration (IC50) worked out at 0.007 µM.

As for `COCCOc1ccc2c(C(N)=O)cn(CC(=O)N3C[C@H](F)C[C@H]3C(=O)NCc3cccc(Cl)c3F)c2c1` [Example 591, 1-{2-[(2S,4R)-2-(3-Chloro-2-fluoro-benzylcarbamoyl)-4-fluoro-pyrrolidin-1-yl]-2-oxo-ethyl}-6-(2-methoxy-ethoxy)-1H-indole-3-carboxylic acid amide], the IC50 was 0.109 µM.

“2S,3R)-3-(2-Methoxy-ethylamino)-pyrrolidine-1,2-dicarboxylic acid 1-[(1-carbamoyl-1H-indol-3-yl)-amide]2-(3-chloro-2-fluoro-benzylamide [Example 423]”: the IC50 came to 0.78 µM.

Consider `NC(=O)n1cc(NC(=O)N2C3CC3C[C@H]2C(=O)Nc2cccc(Cl)c2F)c2ccccc21` (stereo partly drawn) [Example 176, (1R,3S,5R)-2-Aza-bicyclo[3.1.0]hexane-2,3-dicarboxylic acid 2-[(1-carbamoyl-1H-indol-3-yl)-amide] 3-[(3-chloro-2-fluoro-phenyl)-amide]], for which the IC50 came out at 0.03 µM.

As to “(2S,4S)-4-Amino-pyrrolidine-1,2-dicarboxylic acid 1-[(1-carbamoyl-1H-indol-3-yl)-amide] 2-[(2-phenoxy-ethyl)-amide] [Example 91]”, the IC50 is 2.95 µM.

Turning to `NC(=O)n1cc(NC(=O)N2C[C@@H](N)C[C@H]2C(=O)NCc2ccc(Cl)c(Cl)c2)c2ccccc21` [Example 61, (2S,4S)-4-Amino-pyrrolidine-1,2-dicarboxylic acid 1-[(1-carbamoyl-1H-indol-3-yl)-amide] 2-(3,4-dichloro-benzylamide)], the IC50 turned out to be 7.1 µM.

In the case of `NC(=O)n1cc(NC(=O)N2C[C@@H](N)C[C@H]2C(=O)NCc2ccc(C(F)(F)F)cc2)c2ccccc21` [Example 45, (2S,4S)-4-Amino-pyrrolidine-1,2-dicarboxylic acid 1-[(1-carbamoyl-1H-indol-3-yl)-amide] 2-(4-trifluoromethyl-benzylamide)], the IC50 was found to be 22.5 µM.
